Measured values taken from patent publication US8415469B2, “Compounds and methods for kinase modulation, and indications therefor” (Plexxikon Inc., priority 2005, dated 2013).

Columns and labels:
Type in all cases: biochemical
Yes = molecular target: T1, Yes (Homo sapiens, UniProt P07947); assay: Z'-Lyte FRET kinase assay (Invitrogen), Yes; conditions: read-out: IC50, activity toward kinase Yes
T1 construct: purchased Invitrogen (Carlsbad, Calif.), screening service
In short: (§1)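 Serially diluted compound (1% DMSO final) is mixed with kinase plus 2 μM peptide substrate in pH 7.5 HEPES buffer, then ATP is added to 10 μM. After 1 h at room temperature, site-specific protease is added for another hour, reactions are stopped and fluorescence ratio measured.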

PKC theta = molecular target: T2, PKC theta (Homo sapiens, UniProt Q04759); assay: Z'-Lyte FRET kinase assay (Invitrogen), PKC theta; conditions: read-out: IC50, activity toward kinase PKC theta
T2 construct: purchased Invitrogen (Carlsbad, Calif.), screening service
In short: as §1

Btk = molecular target: T3, Btk (Homo sapiens, UniProt Q06187); assay: Z'-Lyte FRET kinase assay (Invitrogen), Btk; conditions: read-out: IC50, activity toward kinase Btk
T3 construct: purchased Invitrogen (assay run by Invitrogen)

Stk6 = molecular target: T4, Stk6 (Homo sapiens, UniProt O14965); assay: Z'-Lyte FRET kinase assay (Invitrogen), Stk6; conditions: read-out: IC50, activity toward kinase Stk6
T4 construct: purchased Invitrogen (Carlsbad, Calif.), screening service
T4 sequence (O14965 1-403): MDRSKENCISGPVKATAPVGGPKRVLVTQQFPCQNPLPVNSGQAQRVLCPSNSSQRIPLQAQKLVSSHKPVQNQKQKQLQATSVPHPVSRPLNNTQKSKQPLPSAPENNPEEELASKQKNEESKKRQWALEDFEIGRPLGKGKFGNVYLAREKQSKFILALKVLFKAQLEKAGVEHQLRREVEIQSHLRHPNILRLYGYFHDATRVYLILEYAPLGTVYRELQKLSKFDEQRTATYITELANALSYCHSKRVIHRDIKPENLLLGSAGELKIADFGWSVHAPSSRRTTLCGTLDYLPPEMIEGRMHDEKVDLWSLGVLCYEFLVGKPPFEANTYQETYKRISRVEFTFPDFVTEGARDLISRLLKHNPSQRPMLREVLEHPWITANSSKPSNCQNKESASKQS

Erk2 = molecular target: T5, Erk2 (Homo sapiens, UniProt P28482); assay: AlphaScreen kinase assay, Erk2; conditions: read-out: IC50, activity toward kinase Erk2
T5 construct: P4227.pET15S ERK2/MEK1DD; His6 with thrombin site (N); made in house
T5 sequence (P28482 with tags, fused parts or gaps): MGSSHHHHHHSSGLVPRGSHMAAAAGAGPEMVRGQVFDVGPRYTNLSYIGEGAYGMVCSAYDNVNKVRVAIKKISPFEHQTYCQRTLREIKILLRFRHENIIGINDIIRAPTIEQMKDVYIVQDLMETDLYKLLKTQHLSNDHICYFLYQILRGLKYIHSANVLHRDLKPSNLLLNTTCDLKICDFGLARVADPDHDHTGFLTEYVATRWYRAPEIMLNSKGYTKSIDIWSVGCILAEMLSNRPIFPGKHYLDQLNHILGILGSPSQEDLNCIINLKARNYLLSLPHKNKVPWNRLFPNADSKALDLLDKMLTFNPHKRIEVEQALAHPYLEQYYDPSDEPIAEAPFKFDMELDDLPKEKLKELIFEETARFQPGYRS
Description: AlphaScreen assay was used to screen additional kinases. The assay is similarly dependent on the phosphorylation of a peptide substrate. In this assay, an antibody that recognizes phosphorylated substrate is bound to an acceptor bead. The peptide substrate is attached to biotin, which binds to a donor head that contains streptavidin. Thus phosphorylated substrate is bound by antibody and streptavidin, bringing the donor and acceptor heads into close proximity when kinase is not inhibited. The donor produces singlet oxygen which results in emission from the acceptor when they are in close proximity. Conversely, when kinase is inhibited, the donor and acceptor beads are not associated and the emission from the acceptor is reduced.
AlphaScreen assays were done using compounds dissolved in DMSO to a concentration of 20 mM. The compounds were diluted accordingly to the desired final concentrations in each sample well, using 1:3 serial dilution for a total of 8 concentration points.

Plk1 = Plk1 (Homo sapiens, UniProt P53350); assay: AlphaScreen kinase assay, Plk1; conditions: read-out: IC50, activity toward kinase Plk1
Chain of Plk1 (P53350 whole entry): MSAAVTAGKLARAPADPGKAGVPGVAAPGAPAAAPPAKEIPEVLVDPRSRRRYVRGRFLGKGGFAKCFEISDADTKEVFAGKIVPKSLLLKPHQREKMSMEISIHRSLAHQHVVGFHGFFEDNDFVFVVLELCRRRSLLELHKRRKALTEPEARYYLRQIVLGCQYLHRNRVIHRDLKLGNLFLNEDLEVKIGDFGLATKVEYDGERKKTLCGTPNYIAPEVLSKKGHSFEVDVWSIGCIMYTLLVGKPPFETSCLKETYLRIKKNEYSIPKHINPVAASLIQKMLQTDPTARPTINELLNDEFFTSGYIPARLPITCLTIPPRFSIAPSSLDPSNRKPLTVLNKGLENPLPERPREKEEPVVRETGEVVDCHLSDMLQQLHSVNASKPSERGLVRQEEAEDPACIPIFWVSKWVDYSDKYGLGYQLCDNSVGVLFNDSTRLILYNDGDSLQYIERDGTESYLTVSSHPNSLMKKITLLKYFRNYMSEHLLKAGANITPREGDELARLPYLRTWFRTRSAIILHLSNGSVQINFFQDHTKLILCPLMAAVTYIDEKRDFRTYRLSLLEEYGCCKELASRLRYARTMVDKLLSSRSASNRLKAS
In short: (§2)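 Here, phosphorylation of a biotin-tagged peptide was sensed by proximity of streptavidin donor and antibody-bearing acceptor beads. Test compounds covered 8 concentrations by 1:3 serial dilution of 20 mM DMSO stocks.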

MAP2K1 = molecular target: T6, MAP2K1 (Homo sapiens, UniProt Q02750); assay: Z'-Lyte FRET kinase assay (Invitrogen), MAP2K1; conditions: read-out: IC50, activity toward kinase MAP2K1
T6 construct: purchased Invitrogen (assay run by Invitrogen)
T6 sequence (Q02750 whole entry): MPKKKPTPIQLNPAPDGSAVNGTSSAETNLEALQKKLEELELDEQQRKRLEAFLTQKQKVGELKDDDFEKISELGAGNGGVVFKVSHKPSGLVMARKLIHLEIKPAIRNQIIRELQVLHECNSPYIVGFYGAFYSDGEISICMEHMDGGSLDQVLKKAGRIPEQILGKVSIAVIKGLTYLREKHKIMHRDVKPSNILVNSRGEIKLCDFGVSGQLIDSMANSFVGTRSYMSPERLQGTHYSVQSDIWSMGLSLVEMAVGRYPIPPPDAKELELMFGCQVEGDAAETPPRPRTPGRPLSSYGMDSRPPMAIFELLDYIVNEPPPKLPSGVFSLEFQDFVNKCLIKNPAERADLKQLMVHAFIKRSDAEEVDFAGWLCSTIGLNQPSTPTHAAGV

Kit = molecular target: T7, Kit (Homo sapiens, UniProt P10721); assay: AlphaScreen kinase assay, Kit; conditions: read-out: IC50, activity toward kinase Kit
T7 construct: P1332.N6 BI PTP KIT M552-K948-X COD; His6 (N); made in house; host or cells: E. coli (PTP1B co-expressed)
T7 sequence (P10721 with tags, fused parts or gaps): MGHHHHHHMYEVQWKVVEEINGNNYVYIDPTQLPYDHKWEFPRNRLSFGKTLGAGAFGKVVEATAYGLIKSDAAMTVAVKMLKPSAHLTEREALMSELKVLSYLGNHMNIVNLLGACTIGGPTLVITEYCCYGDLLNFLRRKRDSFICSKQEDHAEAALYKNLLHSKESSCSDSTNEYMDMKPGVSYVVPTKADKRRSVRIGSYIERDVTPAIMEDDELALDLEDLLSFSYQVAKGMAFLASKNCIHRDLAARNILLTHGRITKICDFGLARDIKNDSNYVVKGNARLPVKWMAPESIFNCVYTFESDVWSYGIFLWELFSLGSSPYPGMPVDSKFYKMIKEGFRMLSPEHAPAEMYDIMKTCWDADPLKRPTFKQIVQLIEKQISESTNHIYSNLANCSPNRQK

Itk = molecular target: T8, Itk (Homo sapiens, UniProt Q08881); assay: AlphaScreen kinase assay, Itk; conditions: read-out: IC50, activity toward kinase Itk
T8 sequence (Q08881 1-620): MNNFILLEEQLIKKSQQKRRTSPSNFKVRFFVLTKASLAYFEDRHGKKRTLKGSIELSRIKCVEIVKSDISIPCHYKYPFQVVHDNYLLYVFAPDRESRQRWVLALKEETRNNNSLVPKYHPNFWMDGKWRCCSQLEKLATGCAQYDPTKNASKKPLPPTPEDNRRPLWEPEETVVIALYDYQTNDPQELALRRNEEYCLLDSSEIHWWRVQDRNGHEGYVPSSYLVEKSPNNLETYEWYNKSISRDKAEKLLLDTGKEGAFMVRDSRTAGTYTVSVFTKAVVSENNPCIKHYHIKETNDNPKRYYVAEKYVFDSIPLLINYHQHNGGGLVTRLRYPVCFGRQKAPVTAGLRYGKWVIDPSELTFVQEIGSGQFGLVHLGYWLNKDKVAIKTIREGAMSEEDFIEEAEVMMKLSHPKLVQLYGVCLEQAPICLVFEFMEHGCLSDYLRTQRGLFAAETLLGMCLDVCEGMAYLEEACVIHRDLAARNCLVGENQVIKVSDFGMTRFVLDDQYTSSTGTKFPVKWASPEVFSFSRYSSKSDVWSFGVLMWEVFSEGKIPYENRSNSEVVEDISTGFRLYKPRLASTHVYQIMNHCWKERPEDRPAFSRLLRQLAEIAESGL
In short: as §2

Kdr = molecular target: T9, Kdr (Homo sapiens, UniProt P35968); assay: Z'-Lyte FRET kinase assay (Invitrogen), Kdr; conditions: read-out: IC50, activity toward kinase Kdr
T9 construct: purchased Invitrogen (assay run by Invitrogen)
T9 sequence (P35968 20-1356): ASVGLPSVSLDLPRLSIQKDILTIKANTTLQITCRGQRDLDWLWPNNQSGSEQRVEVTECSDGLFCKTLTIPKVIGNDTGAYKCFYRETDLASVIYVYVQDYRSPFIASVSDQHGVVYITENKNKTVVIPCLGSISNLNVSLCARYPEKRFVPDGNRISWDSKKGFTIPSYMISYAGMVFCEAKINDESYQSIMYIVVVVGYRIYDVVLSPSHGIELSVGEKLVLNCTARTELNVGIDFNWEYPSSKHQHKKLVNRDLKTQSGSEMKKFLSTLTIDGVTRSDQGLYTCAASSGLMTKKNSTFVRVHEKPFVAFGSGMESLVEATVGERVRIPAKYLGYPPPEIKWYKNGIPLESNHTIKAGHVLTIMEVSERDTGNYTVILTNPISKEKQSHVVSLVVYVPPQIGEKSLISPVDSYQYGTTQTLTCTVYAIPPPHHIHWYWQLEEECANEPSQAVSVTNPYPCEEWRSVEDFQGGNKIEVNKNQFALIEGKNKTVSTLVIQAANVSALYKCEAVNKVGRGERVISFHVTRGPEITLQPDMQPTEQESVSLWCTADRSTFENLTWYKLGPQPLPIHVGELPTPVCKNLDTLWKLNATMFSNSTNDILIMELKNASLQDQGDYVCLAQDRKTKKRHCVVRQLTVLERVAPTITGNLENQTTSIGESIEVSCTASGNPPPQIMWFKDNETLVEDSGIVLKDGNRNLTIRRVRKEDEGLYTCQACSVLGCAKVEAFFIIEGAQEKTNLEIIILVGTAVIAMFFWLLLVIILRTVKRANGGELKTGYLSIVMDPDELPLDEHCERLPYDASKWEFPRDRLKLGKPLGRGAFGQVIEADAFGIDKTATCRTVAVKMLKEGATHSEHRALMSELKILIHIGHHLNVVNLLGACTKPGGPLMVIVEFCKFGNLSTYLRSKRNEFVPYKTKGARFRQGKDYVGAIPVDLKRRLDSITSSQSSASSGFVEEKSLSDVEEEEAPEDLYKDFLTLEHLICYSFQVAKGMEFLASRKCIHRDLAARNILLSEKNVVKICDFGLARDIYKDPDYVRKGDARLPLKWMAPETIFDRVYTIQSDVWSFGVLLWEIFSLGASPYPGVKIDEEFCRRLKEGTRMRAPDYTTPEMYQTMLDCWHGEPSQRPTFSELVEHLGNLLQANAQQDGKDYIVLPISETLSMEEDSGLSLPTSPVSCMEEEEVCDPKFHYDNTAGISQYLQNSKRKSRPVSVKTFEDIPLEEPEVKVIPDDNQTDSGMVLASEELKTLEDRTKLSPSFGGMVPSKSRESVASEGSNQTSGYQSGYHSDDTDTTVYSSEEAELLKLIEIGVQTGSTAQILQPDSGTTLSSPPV

Jnk3 = molecular target: T10, Jnk3 (Homo sapiens, UniProt P53779); assay: AlphaScreen kinase assay, Jnk3; conditions: read-out: IC50, activity toward kinase Jnk3
T10 construct: purchased Upstate Biotechnology

IGF1R = IGF1R (Homo sapiens, UniProt P08069); assay: AlphaScreen kinase assay, IGF1R; conditions: read-out: IC50, activity toward kinase IGF1R
Chain of IGF1R (P08069 31-1367): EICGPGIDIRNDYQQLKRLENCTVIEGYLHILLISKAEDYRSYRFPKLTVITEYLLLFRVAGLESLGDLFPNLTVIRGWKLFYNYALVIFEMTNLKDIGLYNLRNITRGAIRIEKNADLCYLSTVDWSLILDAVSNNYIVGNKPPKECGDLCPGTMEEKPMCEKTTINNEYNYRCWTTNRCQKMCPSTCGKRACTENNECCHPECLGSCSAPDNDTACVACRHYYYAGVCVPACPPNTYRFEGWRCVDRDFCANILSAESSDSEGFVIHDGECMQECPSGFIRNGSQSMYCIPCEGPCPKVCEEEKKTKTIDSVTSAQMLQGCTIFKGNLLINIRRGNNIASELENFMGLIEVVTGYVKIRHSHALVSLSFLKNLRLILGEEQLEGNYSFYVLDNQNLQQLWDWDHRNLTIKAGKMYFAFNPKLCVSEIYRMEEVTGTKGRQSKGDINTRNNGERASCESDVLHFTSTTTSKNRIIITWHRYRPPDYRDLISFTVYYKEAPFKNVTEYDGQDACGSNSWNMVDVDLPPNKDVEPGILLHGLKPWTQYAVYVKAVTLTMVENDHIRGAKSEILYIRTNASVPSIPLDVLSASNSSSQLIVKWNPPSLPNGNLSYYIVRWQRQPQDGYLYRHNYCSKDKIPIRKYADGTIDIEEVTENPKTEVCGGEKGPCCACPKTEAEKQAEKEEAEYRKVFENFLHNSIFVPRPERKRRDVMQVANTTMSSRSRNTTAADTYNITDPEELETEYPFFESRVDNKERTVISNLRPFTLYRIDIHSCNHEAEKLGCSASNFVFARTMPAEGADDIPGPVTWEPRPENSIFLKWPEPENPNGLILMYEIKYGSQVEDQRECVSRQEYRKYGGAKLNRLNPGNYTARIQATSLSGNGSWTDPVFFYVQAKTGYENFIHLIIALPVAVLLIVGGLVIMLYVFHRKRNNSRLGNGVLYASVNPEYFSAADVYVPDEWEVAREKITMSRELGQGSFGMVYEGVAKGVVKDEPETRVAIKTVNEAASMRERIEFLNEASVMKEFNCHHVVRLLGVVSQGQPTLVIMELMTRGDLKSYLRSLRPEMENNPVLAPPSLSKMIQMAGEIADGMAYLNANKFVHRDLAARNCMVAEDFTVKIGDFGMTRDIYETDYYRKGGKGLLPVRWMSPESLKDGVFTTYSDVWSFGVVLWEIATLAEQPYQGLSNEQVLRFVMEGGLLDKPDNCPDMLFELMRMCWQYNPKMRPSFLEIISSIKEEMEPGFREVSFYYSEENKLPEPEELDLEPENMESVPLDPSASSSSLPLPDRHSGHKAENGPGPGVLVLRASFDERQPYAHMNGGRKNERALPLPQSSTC
Description: (§3) AlphaScreen assays were done using compounds dissolved in DMSO to a concentration of 20 mM. The compounds were diluted accordingly to the desired final concentrations in each sample well, using 1:3 serial dilution for a total of 8 concentration points. Plates were prepared such that each kinase reaction is 20 μl in 1× kinase buffer, 5% DMSO and 10 μM ATP. After incubation of the kinase reaction for 1 hour at room temperature, 5 μl of donor beads in stop buffer (50 mM EDTA in 1× kinase buffer) was added, the sample was mixed and incubated for 20 minutes at room temperature before adding 5 μl of acceptor beads in stop buffer. The samples were incubated for 60 minutes at room temperature and the signal per well was read on AlphaQuest reader.

Irak4 = molecular target: T11, Irak4 (Homo sapiens, UniProt Q9NWZ3); assay: Z'-Lyte FRET kinase assay (Invitrogen), Irak4; conditions: read-out: IC50, activity toward kinase Irak4
T11 construct: purchased Invitrogen (assay run by Invitrogen)
T11 sequence (Q9NWZ3 1-460): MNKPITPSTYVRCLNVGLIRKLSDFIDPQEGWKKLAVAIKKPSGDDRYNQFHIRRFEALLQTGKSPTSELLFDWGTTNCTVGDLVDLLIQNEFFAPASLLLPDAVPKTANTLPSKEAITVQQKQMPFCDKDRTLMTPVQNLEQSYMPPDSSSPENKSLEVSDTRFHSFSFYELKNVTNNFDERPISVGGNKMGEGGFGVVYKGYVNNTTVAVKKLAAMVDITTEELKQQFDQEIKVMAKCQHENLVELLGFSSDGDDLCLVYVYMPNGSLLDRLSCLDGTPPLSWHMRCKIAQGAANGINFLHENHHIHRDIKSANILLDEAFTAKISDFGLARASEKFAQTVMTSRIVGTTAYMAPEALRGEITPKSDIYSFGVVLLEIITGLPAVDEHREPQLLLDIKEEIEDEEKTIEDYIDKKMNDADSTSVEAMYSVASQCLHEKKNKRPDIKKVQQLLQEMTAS
Description: The effect of potential modulators of kinase activity can be measured in a variety of different assays known in the art. For example, direct radiometric, indirect FRET or AlphaScreen assays may be used to assess the level of phosphorylation of a substrate in the presence of test compounds in order to determine the inhibitory affect of the compound on the kinase. Invitrogen (Carlsbad, Calif.) uses a FRET based assay for Btk, EGFR, EphB2, Flt3, lrak4, Kdr, MAP2K1, MAPKAPK2, PDGFRB, PKC theta, Stk6 and Yes. For these assays, compounds of the invention were screened by Invitrogen using Z′-Lyte™ kinase assay.
Briefly, the Invitrogen kinase assay involves use of a specific peptide substrate optimized for each kinase, containing a fluorophore at each end that make up the FRET pair. The peptide sensitivity to proteolytic cleavage depends on phosphorylation of the peptide. Non-phosphorylated peptide is cleaved by a protease while peptide phosphorylated by the kinase is not cleaved. Cleavage of the peptide disrupts the FRET between the donor (coumarin) and acceptor (fluorescein) fluorophores, resulting in an increase in the ratio of donor emission to acceptor emission. The emission ratio of coumarin to fluorescein is used to assess the reaction progress. The extent of phosphorylation is determined from the emission ratio, which is low when the kinase is active (phosphorylated peptide is not cleaved, FRET pair connected) or higher for inhibited kinase (non-phosphorylated peptide is cleaved, FRET pair separated). Thus, the assay involves a kinase reaction in the presence of varying concentrations of a given compound, a development reaction with site specific protease, and detection of the fluorescent emission ratio of coumarin and fluorscein. […] Reaction conditions for each kinase are determined to provide optimal reaction times, incubation temperature, kinase and ATP concentrations. Test samples are made up in 1× kinase buffer (50 mM HEPES pH 7.5, 50 mM MgCl2, 5 mM EGTA, 0.05% BRIJ-35) and compound at desired concentration prepared in DMSO such that the final DMSO is 1%. […] Typically, assay plates are prepared to 10 μl final volume per sample, adding 2.5 μl of compound at 4× the desired concentration in 4% DMSO (serial dilution of compound provides concentration curve), 5 μl of the desired kinase mixed with Z′-LYTE™ peptide substrate (2× in 2× kinase buffer, final peptide at 2 μM), and 2.5 μl of 4×ATP solution. All kinase except for MAP2K1 were at 10 μM ATP in the kinase reaction, while MAP2K1 was at 100 μM. Samples are mixed and the kinase reaction is incubated 1 hour at room temperature, after which 5 μl of development solution is added and mixed. After incubation for another 1 hour at room temperature, 5 μl of stop reagent is added to each sample and mixed. The fluorescence signals are measured to determine the emission ratio.

Met = molecular target: T12, Met (Homo sapiens, UniProt P08581); assay: AlphaScreen kinase assay, Met; conditions: read-out: IC50, activity toward kinase Met
T12 construct: P1818.pETN6 BI-PTP MET G1056-G1364-X WT; His6 (N); made in house; host or cells: E. coli (PTP1B co-expressed)
In short: as §2

Flt1 = molecular target: T13, Flt1 (Homo sapiens, UniProt P17948); assay: AlphaScreen kinase assay, Flt1; conditions: read-out: IC50, activity toward kinase Flt1
T13 construct: P1826.pETN6 BI-PTP FLT1 M799-D1165-X WT; His6 (N); made in house; host or cells: E. coli (PTP1B co-expressed)
T13 sequence (P17948 with tags, fused parts or gaps): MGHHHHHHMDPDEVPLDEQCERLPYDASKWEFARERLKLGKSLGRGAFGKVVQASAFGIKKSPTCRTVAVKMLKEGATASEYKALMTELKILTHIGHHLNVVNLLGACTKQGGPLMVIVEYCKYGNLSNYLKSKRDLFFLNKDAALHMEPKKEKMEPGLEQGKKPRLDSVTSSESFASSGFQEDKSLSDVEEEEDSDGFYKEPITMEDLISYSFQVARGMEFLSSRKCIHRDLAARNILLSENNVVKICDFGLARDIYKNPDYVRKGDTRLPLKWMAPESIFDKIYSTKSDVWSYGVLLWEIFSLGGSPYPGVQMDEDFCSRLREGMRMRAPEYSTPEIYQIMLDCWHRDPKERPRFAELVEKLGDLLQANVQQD
Description: as §3

MAP4K4 = MAP4K4 (Homo sapiens, UniProt O95819); assay: AlphaScreen kinase assay, MAP4K4; conditions: read-out: IC50, activity toward kinase MAP4K4
Akt3 = Akt3 (Homo sapiens, UniProt Q9Y243); assay: AlphaScreen kinase assay, Akt3; conditions: read-out: IC50, activity toward kinase Akt3
In short: as §2

Gsk3β = Gsk3β (Homo sapiens, UniProt P49841); assay: AlphaScreen kinase assay, Gsk3β; conditions: read-out: IC50, activity toward kinase Gsk3β
In short: as §2

Measured: IC50

T1 sequence (P07947 whole entry): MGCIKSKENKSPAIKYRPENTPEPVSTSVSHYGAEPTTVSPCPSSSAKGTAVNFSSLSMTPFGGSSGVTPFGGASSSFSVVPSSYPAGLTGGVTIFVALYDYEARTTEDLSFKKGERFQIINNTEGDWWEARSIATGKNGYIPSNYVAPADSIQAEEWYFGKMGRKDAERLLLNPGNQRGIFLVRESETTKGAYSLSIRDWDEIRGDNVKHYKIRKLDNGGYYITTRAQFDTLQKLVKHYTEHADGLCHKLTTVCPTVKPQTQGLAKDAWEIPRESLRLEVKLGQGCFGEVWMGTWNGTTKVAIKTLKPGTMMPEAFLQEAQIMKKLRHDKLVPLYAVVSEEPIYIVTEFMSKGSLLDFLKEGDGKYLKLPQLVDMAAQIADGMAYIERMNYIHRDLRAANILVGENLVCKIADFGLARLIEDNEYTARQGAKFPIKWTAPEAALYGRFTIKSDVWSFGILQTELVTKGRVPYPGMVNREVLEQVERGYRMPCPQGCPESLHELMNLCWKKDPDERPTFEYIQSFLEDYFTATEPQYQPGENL

Cc1cc(C)cc(-c2ccnc3[nH]cc(C=O)c23)c1 [Compound P-0031]
not listed: Irak4 | Met | Flt1 | MAP4K4 | Akt3 | Gsk3β
≤ 10 µM: all other assays above

CC(=O)Nc1cccc(-c2c[nH]c3ncccc23)c1 [Compound P-0076]
≤ 10 µM: Stk6 | MAP2K1 | Irak4 | Met | Kdr

Nc1cccc(-c2c[nH]c3ncccc23)c1 [Compound P-0091]
≤ 10 µM: Stk6 | Irak4 | Kdr | Flt1

c1cnc2[nH]cc(-c3ccncc3)c2c1 [Compound P-0130]
≤ 10 µM: MAP4K4 | Irak4 | Kdr

Cc1cccc(-c2ccnc3[nH]cc(CNS(=O)(=O)C(F)(F)F)c23)c1 [Compound P-0154]
≤ 10 µM: Stk6 | Akt3 | Erk2 | Plk1 | Gsk3β | Kit | IGF1R | Flt1
